# In ChEMBL document CHEMBL1130232, “Synthesis and biological evaluation of 4-(hydroxyalkyl)estradiols and related compounds” (J Med Chem, 1997):
# Assays:
# Conditions in all cases: mcf7
# [1] = target: T1, Estrogen receptor (Homo sapiens, UniProt Q92731+P03372); assay: Affinity for estrogen receptor of human MCF-7 cells; format: cell-based
# [2] = target: T1, Estrogen receptor; assay: Induction of pS2 Gene expression in human MCF-7 cells; format: functional, cell-based
# [3] = target: T1, Estrogen receptor; assay: Affinity for estrogen receptor of human MCF-7 cells at 10e-5 M; format: cell-based
Structure (SMILES),EC50 [1],EC50 [2],EC50 [3]
C[C@]12CC[C@@H]3c4ccc(O)c(O)c4CC[C@H]3[C@@H]1CC[C@@H]2O,0.506 µM,0.0654 µM,
C[C@]12CC[C@@H]3c4ccc(O)c(CCN)c4CC[C@H]3[C@@H]1CC[C@@H]2O,,,2.5 µM
C[C@]12CC[C@@H]3c4ccc(O)c(CCO)c4CC[C@H]3[C@@H]1CC[C@@H]2O,0.62 µM,0.148 µM,
C[C@]12CC[C@@H]3c4ccc(O)c(CO)c4CC[C@H]3[C@@H]1CC[C@@H]2O,0.364 µM,0.0117 µM,
C[C@]12CC[C@@H]3c4ccc(O)c(CCCO)c4CC[C@H]3[C@@H]1CC[C@@H]2O,3.32 µM,2.95 µM,
